Values of other authors as cited in patent US7147859B2 (Laboratorios Biosintetica LTDA., priority 2000, dated 2006).

Tested on: cholesterol absorbance
Conditions: in vivo

CCC(CCC(C)C1CCC2C3CC=C4CC(O)CCC4(C)C3CCC12C)C(C)C (stereo not shown) [Betasitosterol]
reduction of cholesterol absorbance: up to 68%
